Here are results for three compounds from ChEMBL document CHEMBL1777765, “Synthesis of 5-thiodidehydropyranylcytosine derivatives as potential anti-HIV agents” (2011).

Assay [1] concerns Human immunodeficiency virus 1. The experiment in a line: Antiviral activity against HIV1 infected in human PBMC assessed as inhibition of viral replication at 1 to 1000 nM by p24 HIV antigen capture assay. The assay is classed as functional, organism-based.
Assay [2] relates to Human immunodeficiency virus 1. The experiment in a line: Antiviral activity against HIV1 infected in human PBMC assessed as inhibition of viral replication at 100 nM by p24 HIV antigen capture assay relative to control. The assay is classed as functional.
In assay [3] the test system is Human immunodeficiency virus 1. The experiment in a line: Antiviral activity against HIV1 infected in human PBMC assessed as inhibition of viral replication at 10 nM by p24 HIV antigen capture assay relative to control. The assay is classed as functional.

Active and inactive are the calls of the source. No cut-off for these calls is given here.

Regarding `Nc1ccn([C@H]2C=C[C@@H](CO)[C@H](CO)S2)c(=O)n1`, the inhibition (as a rule, how much of the control response was suppressed) in assay [1] was “Active”. For `Nc1ccn([C@@H]2C=C[C@@H](CO)[C@H](CO)S2)c(=O)n1` (racemic), in assay [2], the inhibition at 0.1 µM worked out at 75%. In addition, the inhibition at 0.01 µM in assay [3] came to 65%. With `Nc1ccn([C@@H]2CS[C@H](CO)O2)c(=O)n1` [LAMIVUDINE], in assay [3], the inhibition at 0.01 µM stood at 37%.
